Measured values from patent US5939403A, “Keratan sulfate oligosaccharide fraction and pharmaceutical containing the same” (Seikagaku Corporation, priority 1994, dated 1999).
Structures can show the parent of a compound that is named as a salt.

Assays:
[1] = tested on: papain-induced arthritis; experiment: Papain-induced unilateral arthritis model, intramuscular administration (volume of synovial fluid); type: in vivo, Japanese white rabbits (female); settings: for Volume of Synovial Fluid: 7 days, control 722, normal 433; for quantity of synovial fluid (FIG. 5, result in words): 10 rabbits per group
Experimental: The anti-inflammatory effect of the keratan sulfate oligosaccharide with rabbits of the papain-induced arthritis model was examined using the volume of synovial fluid as an indication.
Seven days after the injection, the blood was drawn from the auricular artery, and plasma containing heparin was separated. After drawing the blood, the rabbits were anatomized and the both knee joint were separated. The articular cavity was washed with 2 ml of saline three times to recover the synovial fluid. The calcium concentrations in the plasma and the recovered synovial fluid were determined, and the volume of synovial fluid was calculated from the following formula.
Volume of Synovial Fluid (ul/articulation)=Amount of Calcium in Recovered
Synovial Fluid (μg/articulation)/Concentration of Calcium in Plasma
Into the articular cavity of left joint of Japanese white rabbits (female) of 3 kg weight, 150 μl of the saline solution of papain (1%) was injected, and the right joint was not treated to prepare the unilateral arthritis model. One day after injecting papain, 150 μl of the PBS solution of the purified keratan sulfate tetrasaccharide (I) (2%, 1%, and 0.5% solution; 1.0 mg/kg, 0.5 mg/kg, and 0.25 mg/kg, respectively) which was prepared in Example 1 was injected into the hip muscle of the left side (hereinafter referred to as "the keratan sulfate tetrasaccharide (I) administered group"). As the control, 150 μl of PBS was injected to the arthritis model instead of the PBS solution of the keratan sulfate tetrasaccharide (I) and hereinafter these rabbits are referred to as "the control group". And the normal rabbits not subjected to the papain injection (hereinafter referred to as "the normal group") were also examined in the same manner hereinafter. Seven days after the injection, the volume of synovial fluid was calculated in the same manner as in (1-1).
The examination was performed in the same manner as in (1-3) except for using 150 μl of the PBS solution of the purified keratan sulfate tetrasaccharide (I), the keratan sulfate pentasaccharide (II), and the keratan sulfate disaccharide (III) (1% solution; 0.5 mg/kg) which were prepared in Example 1. In the figure, *, **, and *** represent that they have the significant difference with p<0.05, p<0.01, and p<0.001, respectively. And in each group, 10 rabbits were used for the examination.

[2] = tested on: neutrophile of guinea pig; experiment: Inhibition of active oxygen (O2^-) generation in FMLP-stimulated neutrophile; type: cell-based, female Hartley guinea pigs
Experimental: To female Hartley guinea pigs of five weeks old (purchased from Japan SLC), 20 ml of the 0.2% aqueous solution of glycogen (Type II; Oyster; Sigma) dissolved in saline which was previously sterilized with autoclave, was intraperitoneally administered. The guinea pigs were sacrificed by bleeding 16 hours after the administration, and 20 ml of the saline containing heparin at a concentration of 10 U/ml was intraperitoneally injected to recover the peritoneal exudate. Hereinafter all the operations were carried out under ice-water cooling condition except for incubation. The recovered exudate was centrifuged at 1,000 rpm for 10 minutes, the precipitate obtained was hemolyzed with purified water for 30 seconds, and returned into isotonicity with the Hanks' solution at double the concentration (not containing phenol red; Nissui Seiyaku), and further it was centrifuged at 1,000 rpm for 10 minutes. The precipitate obtained was suspended in the Hanks' solution and centrifuged and the operations were repeated once more to give the neutrophile.
The collected neutrophile of the guinea pigs was suspended in the Hanks' solution, the number of leukocyte in the suspension was determined by a cytometer (System K-2000; Toa Iyo Denshi Co.), and the suspension diluted with the Hanks' solution to 2×10^6 cells/ml was used in the determination as the cell suspension. After mixing 1 ml of the cell suspension and 10 μl of the purified keratan sulfate oligosaccharide (keratan sulfate tetrasaccharide (I), the keratan sulfate pentasaccharide (II), or the keratan sulfate disaccharide (III)) prepared in Example 1 described above, and the mixture was preincubated at 37° C. for an hour. […]
The supernatant obtained by the centrifugation was separated and the absorbance thereof was determined at 550 nm to estimate the quantity of reducing cytochrome c per 2×10^6 cells after the 10 minutes incubation. The quantity of reducing cytochrome c increases with the generation of active oxygen (O2^-). […]

[3] = 0.5 mg/kg intramuscular, unilateral model

SMILES | Volume of Synovial Fluid ([1]; 0.25 mg/kg intramuscular, n = 9, SD 70.6, p < 0.05) [µL] | quantity of synovial fluid (FIG. 5, result in words) [1, 3] | Volume of Synovial Fluid ([1]; 0.5 mg/kg intramuscular, n = 10, SD 68.9, p < 0.01) [µL] | Volume of Synovial Fluid ([1]; 1.0 mg/kg intramuscular, n = 9, SD 53.1, p < 0.01) [µL] | volume of synovial fluid (result in words) ([1]; 0.25, 0.5, 1.0 mg/kg intramuscular, unilateral model) | inhibition of generation of active oxygen (O2^-) (FIG. 10) ([2]; 0.01, 0.1 and 1.0 mg/ml) | inhibitory function for generation of active oxygen (O2^-) (FIG. 10) [2]
CC(=O)N[C@H]1[C@H](O[C@H]2[C@@H](O)[C@@H](COS(=O)(=O)O)O[C@@H](O[C@H]3[C@H](O)[C@@H](NC(C)=O)C(O)O[C@@H]3COS(=O)(=O)O)[C@@H]2O)O[C@H](COS(=O)(=O)O)[C@@H](O[C@@H]2O[C@H](COS(=O)(=O)O)[C@H](O)[C@H](O)[C@H]2O)[C@@H]1O (stereo partly drawn) [keratan sulfate tetrasaccharide (I), Gal(6S)β1-4GlcNAc(6S)β1-3Gal(6S)β1-4GlcNAc(6S)] | 619 | significantly less than that in the control group | 597 | 528 | significantly less than that in the control group | remarkably inhibits the generation of active oxygen (O2^-) depending upon the concentration | –
CC(=O)N[C@H]1C(O)O[C@H](COS(=O)(=O)O)[C@@H](O[C@@H]2O[C@H](COS(=O)(=O)O)[C@H](O)[C@H](O)[C@H]2O)[C@@H]1O (stereo partly drawn) [keratan sulfate disaccharide (III), Gal(6S)β1-4GlcNAc(6S)] | – | significantly less than that in the control group | – | – | – | – | slightly observed
